The values below come from patent publication US7608629B2, “(Piperidinyloxy)phenyl, (piperidinyloxy)pyridinyl, (piperidinylsulfanyl)phenyl and (piperidinylsulfanyl)pyridinyl compounds as 5-HT1F agonists” (Eli Lilly and Company, priority 2003, dated 2009).

The structures appear in SMILES notation. pEC50: −log10 of the molar value. Counter-ions that a name gives are not always drawn.

The test system of the first series is rabbit saphenous vein. Nature of the series: Rabbit saphenous vein contraction.
Settings: not given
On the procedure: Representative compounds of the present invention were tested in a rabbit saphenous vein contraction assay to measure their ability to mediate vasoconstriction. […] The tips of two 30-gauge stainless steel hypodermic needles bent into an L-shape were slipped into the polyethylene tubing. Vessels were gently pushed from the cannula onto the needles. The needles were then separated so that the lower one was attached with thread to a stationary glass rod and the upper one was tied with thread to the transducer. […] An initial optimum resting force of 1 gm was applied to the saphenous vein. Isometric contractions were recorded as changes in grams of force on a Beckman Dynograph with Statham UC-3 transducers and microscale accessory attachments. Tissues were allowed to equilibrate 1 to 2 hours before exposure to drugs. Cumulative agonist concentration-response curves were generated in tissues and no tissue was used to generate more than two agonist concentration-response curves. […] This vasoconstriction assay measures two important parameters, saphenous vein contraction (EC50) and maximal contraction as a % maximal KCl response (% man KCl).
In the case of `CNS(=O)(=O)Cc1ccc2[nH]cc(CCN(C)C)c2c1` [sumatriptan], the “corrected vasoconstriction EC50 (EC50 divided by %max KCl)” value amounted to 10.3 nM.

The same series, now with this note: Oryctolagus cuniculus.
With `CNS(=O)(=O)Cc1ccc2[nH]cc(CCN(C)C)c2c1` [sumatriptan], the pEC50 (in general, the negative decadic logarithm of the EC50, by convention in mol/L) was 6.18.

System in the next series: not given
Test: not given
Settings: not given
As to `CN1CCC(Oc2cc(NC(=O)c3ccccc3Br)ccc2Cl)CC1.Cl`, the melting point (commonly the temperature, or range, at which the solid turns liquid) lay within 146 to 148 °C. As for `CN1CCC(Oc2cccc(NC(=O)c3ccccc3Br)c2)CC1.Cl`, the melting point is 269 °C (dec.). `CN1CCC(Oc2cccc(NC(=O)c3ccccc3Cl)n2)CC1.Cl` (hydrate or solvate) came in with a melting point of 88 to 90 °C. For the molecule `CN1CCC(Oc2cccc(NC(=O)c3ccccc3OC(F)(F)F)n2)CC1.Cl`, the melting point stood at 88.7 °C.

In the case of `CN1CCC(Oc2cccc(NC(=O)c3c(F)cccc3F)c2)CC1.Cl`, the melting point fell in the range of 136 to 138 °C.

On to `C[C@H]1CN(C)CC[C@H]1Oc1cccc(NC(=O)C2=CC=C(F)CC2Cl)n1` (single isomer, unassigned) (as salt: salt), for which the melting point is 238 °C. `C[C@H]1C[C@H](Oc2cccc(NC(=O)c3ccc(F)cc3Cl)c2)CCN1C.Cl` (single isomer, unassigned): the melting point is 145 °C.

In turn, `CN1CCC(Oc2cccc(NC(=O)c3ccccc3Br)n2)CC1.Cl` came in with a melting point of 104.3 °C.

`CN1CCC(Oc2cc(NC(=O)c3c(F)cc(F)cc3F)ccc2Cl)CC1.Cl` showed a melting point above 270 °C. For the molecule `CN1CCC(Oc2cccc(NC(=O)c3c(F)cccc3Cl)n2)CC1.Cl`, the melting point came out at 139.6 °C. `CN1CCC(Oc2cccc(NC(=O)c3c(F)cccc3F)n2)CC1.Cl` gave a melting point of 261.4 °C. As for `CN1CCC(Oc2cccc(NC(=O)c3ccncc3)n2)CC1.Cl` (hydrate or solvate), the melting point was 254 to 256 °C.

In the case of `CN1CCC(Oc2cc(F)cc(NC(=O)c3ccc(F)cc3)c2)CC1.Cl`, the melting point was found to be 150 °C.

For the molecule `CN1CCC(Oc2cccc(NC(=O)C3CCCCC3)c2)CC1.Cl`, the melting point lay within 141 to 142 °C. The same measure, in the same setting: the figure for `CN1CCC(Oc2cccc(NC(=O)c3ccccc3C(F)(F)F)c2)CC1.Cl` is 135 to 136 °C.

With `CCN1CCC(Oc2cccc(NC(=O)c3c(F)cccc3Cl)c2)CC1.Cl`, the melting point was 262 °C (dec.). Take `CN1CCC(Oc2cc(NC(=O)c3ccccc3Cl)ccc2Cl)CC1.Cl`: the melting point was 259 °C (dec.).

The molecule `C[C@H]1C[C@H](Oc2cc(NC(=O)c3ccc(F)cc3Cl)ccc2C(C)(C)C)CCN1C.Cl` (single isomer, unassigned) gave a melting point of 260 °C.

Consider `CN1CCC(Oc2cccc(NC(=O)c3c(F)cccc3Cl)c2)CC1.Cl`, for which the melting point was in the range of 153 to 154 °C. In turn, `CN1CCC(Oc2cccc(NC(=O)c3c(F)cc(F)cc3F)n2)CC1.Cl` yielded a melting point of 264 to 266 °C.

With `CC1CN(C)CCC1Oc1cccc(NC(=O)c2ccc(F)cc2Cl)n1.Cl` (stereo not drawn), the melting point fell in the range of 155 to 160 °C. In turn, `CN1CCC(Oc2cccc(NC(=O)c3ccc(F)cc3Cl)c2)CC1.Cl` came in with a melting point of 213 °C. Take `CN1CCC(Oc2cc(NC(=O)c3c(F)cccc3F)ccc2Cl)CC1.Cl`: the melting point was 261 °C (dec.). Take `CN1CCC(Oc2cccc(NC(=O)c3ccc(F)cc3)n2)CC1(C)C` (stereo not drawn) (as salt: salt): the melting point came to 145 °C. Consider `CN1CCC(Oc2cccc(NC(=O)c3ccc(F)cc3Cl)n2)CC1.Cl` (hydrate or solvate), for which the melting point is 135 to 137 °C. Molecule `CCN1CCC(Oc2cccc(NC(=O)c3ccc(F)cc3Cl)c2)CC1.Cl` had a melting point of 91 °C. For the molecule `CC(C)C(=O)Nc1cccc(OC2CCN(C)CC2)c1.Cl`, the melting point lay within 104 to 105 °C. In turn, `CN1CCC(Oc2cccc(NC(=O)c3ccccc3OC(F)(F)F)c2)CC1.Cl` displayed a melting point of 119 to 121 °C.

On to `CN1CCC(Oc2cccc(NC(=O)c3ccc(Cl)cc3Cl)c2)CC1.Cl`, for which the melting point is 131 to 133 °C. For the molecule `CN1CCC(Oc2cccc(NC(=O)c3ccc(F)c(F)c3F)n2)CC1.Cl`, the melting point was 182.4 °C (dec.). `CN1CCC(Oc2cc(NC(=O)c3c(F)cccc3Cl)ccc2Cl)CC1.Cl` registered a melting point of 259 to 260 °C.

`C[C@H]1C[C@@H](Oc2cccc(NC(=O)c3ccc(F)cc3Cl)c2)CCN1C.Cl` (single isomer, unassigned): the melting point worked out at 152 °C. Turning to `CN1CCC(Oc2cc(NC(=O)c3ccccc3OC(F)(F)F)ccc2Cl)CC1.Cl`, the melting point was in the range of 95 to 97 °C.

On to `C[C@@H]1CN(C)CC[C@@H]1Oc1cccc(NC(=O)C2=CC=C(F)CC2Cl)n1` (single isomer, unassigned) (as salt: salt), for which the melting point is 238 °C. The same measure, in the same setting: the figure for `CN1CCC(Oc2cccc(NC(=O)c3ccc(F)cc3)n2)CC1.Cl` (hydrate or solvate) is 203 to 205 °C.

On to `CN1CCC(Oc2cc(NC(=O)c3ccc(F)cc3F)ccc2Cl)CC1.Cl`, for which the melting point is 257 °C (dec.). `CN1CCC(Oc2cccc(NC(=O)c3ccncc3)c2)CC1.Cl` gave a melting point of 172 to 175 °C.

With `CN1CCC(Oc2cccc(NC(=O)c3c(Cl)cccc3Cl)c2)CC1.Cl`, the melting point lay in the range of 170 to 171 °C. On the same count and under the same terms, as for `CN1CCC(Oc2cccc(NC(=O)c3c(F)cc(F)cc3F)c2)CC1.Cl`, the figure is 136 °C (dec.); as for `CN1CCC(Oc2cccc(NC(=O)c3ccc(F)cc3F)n2)CC1.Cl` (hydrate or solvate), 269 to 271 °C.

With `CN1CCC(Oc2cccc(NC(=O)c3cc(F)c(F)c(F)c3)n2)CC1.Cl`, the melting point was 171.4 °C (dec.). `Cl.O=C(Nc1cccc(OC2CCNCC2)n1)c1ccc(F)cc1` (hydrate or solvate) showed a melting point of 251 to 253 °C.

In turn, `CN1CCC(Oc2cccc(NC(=O)c3cccnc3)c2)CC1.Cl` showed a melting point of 73 to 74 °C.
